Where two headings read alike, the source gives them in different places. One block for each compound: values may come before it.
Assays:
[1] = biological target: T1, AMPK α1β2γ1 (Homo sapiens, UniProt O43741+P54619+Q13131); experiment: Steady-state kinetics, radiometric SAMS assay; format: biochemical; settings: absence of AMP, SAMS fixed at ~10-fold Km, read-out: Km ATP
T1 construct: Recombinant full-length AMPK heterotrimeric complexes α1β1γ1, α1β2γ1, α1β2γ3, α2β1γ1, α2β2γ1 and α2β2γ3 were cloned; 6X-His (N); made in house; host or cells: E. coli BL21-CodonPlus (DE3)-RIPL
Method: (§1) The kinase activity of pAMPK was measured via AMPK-mediated incorporation of ^33phosphate from [^33P]ATP into the synthetic peptide called SAMS [31] using the radiometric assay as described before. […] Assay linearity was ensured by determining that <30% substrate was depleted for all concentrations tested. The Km values were obtained in the absence of AMP in the reaction. Data were fitted by non-linear regression to the Michaelis–Menten equation using GraphPad prism to obtain the kinetic parameters. The specific radioactivity of each isoform was determined at saturating concentrations of each substrate.

[2] = biological target: T2, AMPK α2β1γ1 (Homo sapiens, UniProt P54619+P54646+Q9Y478); experiment: Steady-state kinetics, radiometric SAMS assay; format: biochemical; settings: absence of AMP, SAMS fixed at ~10-fold Km, read-out: Km ATP
T2 construct: Recombinant full-length AMPK heterotrimeric complexes α1β1γ1, α1β2γ1, α1β2γ3, α2β1γ1, α2β2γ1 and α2β2γ3 were cloned; 6X-His (N); made in house; host or cells: E. coli BL21-CodonPlus (DE3)-RIPL
Method: as §1

[3] = biological target: T3, AMPK α1β2γ3 (Homo sapiens, UniProt O43741+Q13131+Q9UGI9); experiment: Steady-state kinetics, radiometric SAMS assay; format: biochemical; settings: absence of AMP, SAMS fixed at ~10-fold Km, read-out: Km ATP
T3 construct: Recombinant full-length AMPK heterotrimeric complexes α1β1γ1, α1β2γ1, α1β2γ3, α2β1γ1, α2β2γ1 and α2β2γ3 were cloned; 6X-His (N); made in house; host or cells: E. coli BL21-CodonPlus (DE3)-RIPL
Method: as §1

[4] = biological target: T4, AMPK α2β2γ1 (Homo sapiens, UniProt O43741+P54619+P54646); experiment: Steady-state kinetics, radiometric SAMS assay; format: biochemical; settings: absence of AMP, SAMS fixed at ~10-fold Km, read-out: Km ATP
T4 construct: Recombinant full-length AMPK heterotrimeric complexes α1β1γ1, α1β2γ1, α1β2γ3, α2β1γ1, α2β2γ1 and α2β2γ3 were cloned; 6X-His (N); made in house; host or cells: E. coli BL21-CodonPlus (DE3)-RIPL
Method: as §1

[5] = biological target: T5, AMPK α2β2γ3 (Homo sapiens, UniProt O43741+P54646+Q9UGI9); experiment: Steady-state kinetics, radiometric SAMS assay; format: biochemical; settings: absence of AMP, SAMS fixed at ~10-fold Km, read-out: Km ATP
T5 construct: Recombinant full-length AMPK heterotrimeric complexes α1β1γ1, α1β2γ1, α1β2γ3, α2β1γ1, α2β2γ1 and α2β2γ3 were cloned; 6X-His (N); made in house; host or cells: E. coli BL21-CodonPlus (DE3)-RIPL
Method: as §1

[6] = biological target: T6, AMPK α1β1γ1 (Homo sapiens, UniProt P54619+Q13131+Q9Y478); experiment: Steady-state kinetics, radiometric SAMS assay; format: biochemical; settings: absence of AMP, SAMS fixed at ~10-fold Km, read-out: Km ATP
T6 construct: Recombinant full-length AMPK heterotrimeric complexes α1β1γ1, α1β2γ1, α1β2γ3, α2β1γ1, α2β2γ1 and α2β2γ3 were cloned; 6X-His (N); made in house; host or cells: E. coli BL21-CodonPlus (DE3)-RIPL
Method: as §1

[7] = biological target: T7, BAP-tagged AMPK α2β2γ1 (Homo sapiens, UniProt O43741+P54619+P54646); experiment: SPR direct binding (Biacore)
T7 construct: Recombinant full-length AMPK heterotrimeric complexes α1β1γ1, α1β2γ1, α1β2γ3, α2β1γ1, α2β2γ1 and α2β2γ3 were cloned into a tricistronic vector system; 6X-His (N); made in house; host or cells: E. coli BL21-CodonPlus (DE3)-RIPL, co-expressed with BirA
Method: (§2) SPR experiments were performed on a Biacore™ 3000 instrument (GE Healthcare). BAP-tagged AMPK isoform (α1β1γ1, α1β2γ1, α2β2γ1, α2β2γ3) was captured on to a streptavidin sensor chip to levels ranging from 4000 to 6000 RU. […] Binding responses were processed using Scrubber 2 (BioLogic Software Pty Ltd) to zero, x-align, double reference and corrected for excluded volume effect of DMSO in the data. […] The compound was injected at a flow rate of 50 μl/min with total contact time of 120 s and dissociation time of 600 s. Rate parameters (kon, koff) and corresponding dissociation constant(KD=koff/kon) were determined by globally fitting all of the experimental data to a simple 1:1 interaction model using Biaeval software (GE Healthcare). To determine nt binding, 10 concentrations with 2-fold dilutions were tested in duplicate. The highest concentration tested was 2 mM. The compound was injected at a flow rate of 50 μl/min with total contact time of 120 s and dissociation time of 300 s. Equilibrium dissociation constant (KD) was determined using a steady-state affinity algorithm available within Scrubber.
(§3) We then compared the binding of nts (AMP, ADP and ATP) to α1β1γ1, α1β2γ1, α2β2γ1 and α2β2γ3 isoforms in the presence and absence of Mg^2+ and Stau, using SPR technique. […]

[8] = biological target: T8, BAP-tagged AMPK α1β1γ1 (Homo sapiens, UniProt P54619+Q13131+Q9Y478); experiment: SPR direct binding (Biacore)
T8 construct: Recombinant full-length AMPK heterotrimeric complexes α1β1γ1, α1β2γ1, α1β2γ3, α2β1γ1, α2β2γ1 and α2β2γ3 were cloned; 6X-His (N); AviTag (BAP); made in house; host or cells: E. coli (co-expressed with BirA)
Method: as §2, §3

[9] = biological target: T9, BAP-tagged AMPK α1β2γ1 (Homo sapiens, UniProt O43741+P54619+Q13131); experiment: SPR direct binding (Biacore)
T9 construct: Recombinant full-length AMPK heterotrimeric complexes α1β1γ1, α1β2γ1, α1β2γ3, α2β1γ1, α2β2γ1 and α2β2γ3 were cloned into a tricistronic vector system; 6X-His (N); made in house; host or cells: E. coli BL21-CodonPlus (DE3)-RIPL, co-expressed with BirA
Method: as §2
(§4) We then compared the binding of nts (AMP, ADP and ATP) to α1β1γ1, α1β2γ1, α2β2γ1 and α2β2γ3 isoforms in the presence and absence of Mg^2+ and Stau, using SPR technique.

[10] = biological target: T10, BAP-tagged AMPK α2β2γ3 (Homo sapiens, UniProt O43741+P54646+Q9UGI9); experiment: SPR direct binding (Biacore)
T10 construct: Recombinant full-length AMPK heterotrimeric complexes α1β1γ1, α1β2γ1, α1β2γ3, α2β1γ1, α2β2γ1 and α2β2γ3 were cloned into a tricistronic vector system; 6X-His (N); made in house; host or cells: E. coli BL21-CodonPlus (DE3)-RIPL, co-expressed with BirA
Method: as §2, §4

[11] = biological target: full-length, pAMPK; design: method as in PMID 21399626; settings: presence of Mg2+, cited from earlier work
[12] = biological target: T11, AMPK α1-kinase domain (α1-KD) (Homo sapiens, UniProt Q13131); experiment: Phosphatase (PP2Aα) sensitivity, pThr172/174 dephosphorylation; format: biochemical; settings: PP2Aα concentration for half-maximal dephosphorylation, absence of activator, read-out: PP2Aα sensitivity dEC50
T11 construct: AMPK α1-kinase domain (α1-KD; residues 18–293); 6X-His (N); made in house; host or cells: E. coli BL21-CodonPlus (DE3)-RIPL (pET28a)
Method: (§5) Test compound was previously diluted in half-log increments, starting at 40 μM in 100% DMSO, diluted 10-fold in assay buffer and dispensed into a microtitre plate. After 15 min at room temperature, phosphatase was added to the mixture and the reaction was allowed to proceed for 60 min at room temperature. Reactions were quenched by the addition of okadaic acid, and transferred to PVDF membrane using the slot-blot apparatus and subjected to immunoblotting. Phosphatase sensitivity was similarly assessed by subjecting pAMPK to a phosphatase (PP2Aα) treatment using various concentrations and incubation times. The concentration of phosphatase was expressed as nmol of PP2Aα per minute per nmol of pAMPK in the reaction.
(§6) The membrane was blocked with Western Blot Blocking Buffer Reagent (Li-Cor) for 3–4 h at room temperature. The blot was probed using a rabbit α-pThr^172/174-specific antibody (Cell Signaling 40H9) at 1:500 dilution for 2 h and washed three times using 1 × PBS/0.1% Tween 20 (42°C pre-warmed wash buffer). Following the wash step, goat anti-rabbit 800CW (Rockland) at 1:10000 dilution was used as a secondary antibody. Blots were visualized using the Li-Cor Odyssey infrared imaging system and signal quantification was performed using the Odyssey software. The pEC50 values (estimated concentration of activator required for half-maximal protection of pThr^172/174 from PP2α) were calculated using GraphPad Prism software.
(§7) We then examined the sensitivity of phospho-α-Thr^172/174 (pThr^172/174) for dephosphorylation by phosphatase (PP2Aα) in the absence of allosteric modulators. The extent of dephosphorylation was measured using an antibody specific to α-pThr^172/174 as described in ‘Experimental’ section. […] The presence of the regulatory subunits (β and γ) leads to increased protection of pAMPK from dephosphorylation compared with the kinase domains alone (Figure 6). […] The dEC50 values for α2-containing isoforms were 40, 57 and 41 nM for α2β1γ1, α2β2γ1 and α2β2γ3 respectively; 13- to 18-fold right-shifted compared with that for isolated α2-kinase domain (Figure 6).
(§8) Figure 6 Phosphatase (PP2Aα) sensitivity of AMPK isoforms Effect of phosphatase (PP2Aα) on pThr^172/174 dephosphorylation of AMPK isoforms in the absence of activators is shown. Data are mean (n=2), and curves were generated using best-fit values.

[13] = biological target: T2, AMPK α2β1γ1; experiment: as above; format: biochemical; settings: PP2Aα concentration for half-maximal dephosphorylation, absence of activator, read-out: PP2Aα sensitivity dEC50
Method: as §5, §6, §7, §8

[14] = biological target: T3, AMPK α1β2γ3; experiment: as above; format: biochemical; settings: PP2Aα concentration for half-maximal dephosphorylation, absence of activator, read-out: PP2Aα sensitivity dEC50
Method: as §5, §6, §7, §8

[15] = biological target: T4, AMPK α2β2γ1; experiment: as above; format: biochemical; settings: PP2Aα concentration for half-maximal dephosphorylation, absence of activator, read-out: PP2Aα sensitivity dEC50
Method: as §5, §6, §7, §8

[16] = biological target: T12, AMPK α2-kinase domain (α2-KD) (Homo sapiens, UniProt P54646); experiment: as above; format: biochemical; settings: PP2Aα concentration for half-maximal dephosphorylation, absence of activator, read-out: PP2Aα sensitivity dEC50
T12 construct: α2-kinase domain (α2-KD; residues 7–282); 6X-His (N); made in house; host or cells: E. coli BL21-CodonPlus (DE3)-RIPL (pET28a)
Method: as §5, §6, §7, §8

[17] = biological target: T5, AMPK α2β2γ3; experiment: as above; format: biochemical; settings: PP2Aα concentration for half-maximal dephosphorylation, absence of activator, read-out: PP2Aα sensitivity dEC50
Method: as §5, §6, §7, §8

[18] = presence of Mg2+ and 25 nM Stau, cell spans KD1 and KD2, read-out: KD (single measurable binding affinity)
[19] = presence of Mg2+, cell spans KD1 and KD2, read-out: KD (single measurable binding affinity)
[20] = tighter site, absence of Mg2+ and Stau, read-out: KD1
[21] = weaker site, absence of Mg2+ and Stau, read-out: KD2

T9 sequence (Q13131 whole entry): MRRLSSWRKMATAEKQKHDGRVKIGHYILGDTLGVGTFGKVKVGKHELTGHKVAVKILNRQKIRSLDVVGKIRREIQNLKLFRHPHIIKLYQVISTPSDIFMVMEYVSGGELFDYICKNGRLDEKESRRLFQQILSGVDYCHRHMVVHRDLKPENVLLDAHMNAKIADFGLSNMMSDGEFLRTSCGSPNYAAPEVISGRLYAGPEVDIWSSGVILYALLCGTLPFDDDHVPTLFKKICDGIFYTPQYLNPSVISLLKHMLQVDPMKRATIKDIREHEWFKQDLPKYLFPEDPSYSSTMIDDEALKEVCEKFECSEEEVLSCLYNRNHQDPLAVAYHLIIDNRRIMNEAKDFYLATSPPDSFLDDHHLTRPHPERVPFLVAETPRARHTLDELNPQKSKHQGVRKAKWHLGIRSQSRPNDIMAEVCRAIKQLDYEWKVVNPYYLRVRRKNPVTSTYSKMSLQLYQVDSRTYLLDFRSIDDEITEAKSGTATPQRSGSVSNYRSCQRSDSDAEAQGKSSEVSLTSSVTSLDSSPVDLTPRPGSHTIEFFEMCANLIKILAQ
T9 sequence (O43741 whole entry): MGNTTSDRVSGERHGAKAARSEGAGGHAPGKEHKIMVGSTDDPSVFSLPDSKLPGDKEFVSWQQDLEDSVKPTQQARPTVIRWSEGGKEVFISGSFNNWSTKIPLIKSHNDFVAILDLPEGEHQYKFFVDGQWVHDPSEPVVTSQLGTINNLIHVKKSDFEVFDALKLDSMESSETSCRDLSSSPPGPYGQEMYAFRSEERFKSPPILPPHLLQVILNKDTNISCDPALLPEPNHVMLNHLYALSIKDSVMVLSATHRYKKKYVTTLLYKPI
T9 sequence (P54619 whole entry): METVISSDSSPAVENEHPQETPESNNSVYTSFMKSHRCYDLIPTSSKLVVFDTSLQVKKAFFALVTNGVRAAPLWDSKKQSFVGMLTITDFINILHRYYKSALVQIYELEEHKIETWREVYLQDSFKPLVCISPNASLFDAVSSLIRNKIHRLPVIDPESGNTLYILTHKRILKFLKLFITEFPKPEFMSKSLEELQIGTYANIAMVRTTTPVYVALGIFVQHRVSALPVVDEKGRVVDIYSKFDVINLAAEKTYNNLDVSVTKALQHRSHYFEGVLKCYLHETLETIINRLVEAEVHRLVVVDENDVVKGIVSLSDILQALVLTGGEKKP
T8 sequence (Q13131 whole entry): as the sequence (Q13131 whole entry) above
T8 sequence (Q9Y478 whole entry): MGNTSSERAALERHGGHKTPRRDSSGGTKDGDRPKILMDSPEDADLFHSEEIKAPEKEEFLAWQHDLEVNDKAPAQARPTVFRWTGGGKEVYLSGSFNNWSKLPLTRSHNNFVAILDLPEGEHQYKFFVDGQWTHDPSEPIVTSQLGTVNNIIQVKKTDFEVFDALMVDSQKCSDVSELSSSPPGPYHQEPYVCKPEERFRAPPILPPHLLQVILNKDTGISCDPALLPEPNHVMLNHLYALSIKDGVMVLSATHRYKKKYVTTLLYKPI
T8 sequence (P54619 whole entry): as the sequence (P54619 whole entry) above
T7 sequence (P54646 whole entry): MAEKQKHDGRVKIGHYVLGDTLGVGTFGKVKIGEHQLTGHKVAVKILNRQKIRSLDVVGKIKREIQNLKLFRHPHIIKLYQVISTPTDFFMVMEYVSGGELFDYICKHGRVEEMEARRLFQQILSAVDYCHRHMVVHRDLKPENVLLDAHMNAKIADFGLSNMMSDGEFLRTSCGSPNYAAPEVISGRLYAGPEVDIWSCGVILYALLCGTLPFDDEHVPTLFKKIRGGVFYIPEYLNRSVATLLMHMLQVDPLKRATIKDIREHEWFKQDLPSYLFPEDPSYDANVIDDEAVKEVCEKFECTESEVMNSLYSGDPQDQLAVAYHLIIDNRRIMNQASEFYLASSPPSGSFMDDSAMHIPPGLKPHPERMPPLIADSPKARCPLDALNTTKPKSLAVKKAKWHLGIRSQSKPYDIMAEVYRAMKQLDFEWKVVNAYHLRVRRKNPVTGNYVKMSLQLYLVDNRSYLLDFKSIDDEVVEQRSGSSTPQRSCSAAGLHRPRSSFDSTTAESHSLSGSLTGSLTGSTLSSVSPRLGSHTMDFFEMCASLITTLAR
T7 sequence (O43741 whole entry): as the sequence (O43741 whole entry) above
T7 sequence (P54619 whole entry): as the sequence (P54619 whole entry) above
T10 sequence (P54646 whole entry): as the sequence (P54646 whole entry) above
T10 sequence (O43741 whole entry): as the sequence (O43741 whole entry) above
T10 sequence (Q9UGI9 whole entry): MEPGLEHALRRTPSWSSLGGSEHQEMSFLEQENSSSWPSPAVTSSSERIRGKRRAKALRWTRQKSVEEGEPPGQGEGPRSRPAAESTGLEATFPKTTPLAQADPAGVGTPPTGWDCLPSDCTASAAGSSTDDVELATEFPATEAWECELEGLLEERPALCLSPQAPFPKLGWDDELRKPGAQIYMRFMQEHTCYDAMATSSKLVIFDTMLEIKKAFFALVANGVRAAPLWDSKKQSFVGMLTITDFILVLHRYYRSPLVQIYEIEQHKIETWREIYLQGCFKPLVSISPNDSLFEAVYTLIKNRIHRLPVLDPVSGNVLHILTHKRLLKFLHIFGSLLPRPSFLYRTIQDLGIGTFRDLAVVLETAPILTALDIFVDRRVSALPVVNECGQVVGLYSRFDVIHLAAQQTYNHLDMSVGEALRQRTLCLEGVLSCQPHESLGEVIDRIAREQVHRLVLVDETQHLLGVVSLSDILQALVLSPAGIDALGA
T3 sequence (Q13131 whole entry): as the sequence (Q13131 whole entry) above
T3 sequence (O43741 whole entry): as the sequence (O43741 whole entry) above
T3 sequence (Q9UGI9 whole entry): as the sequence (Q9UGI9 whole entry) above
T4 sequence (P54646 whole entry): as the sequence (P54646 whole entry) above
T4 sequence (O43741 whole entry): as the sequence (O43741 whole entry) above
T4 sequence (P54619 whole entry): as the sequence (P54619 whole entry) above
T2 sequence (P54646 whole entry): as the sequence (P54646 whole entry) above
T2 sequence (Q9Y478 whole entry): as the sequence (Q9Y478 whole entry) above
T2 sequence (P54619 whole entry): as the sequence (P54619 whole entry) above
T5 sequence (P54646 whole entry): as the sequence (P54646 whole entry) above
T5 sequence (O43741 whole entry): as the sequence (O43741 whole entry) above
T5 sequence (Q9UGI9 whole entry): as the sequence (Q9UGI9 whole entry) above
T1 sequence (Q13131 whole entry): as the sequence (Q13131 whole entry) above
T1 sequence (O43741 whole entry): as the sequence (O43741 whole entry) above
T1 sequence (P54619 whole entry): as the sequence (P54619 whole entry) above
T6 sequence (Q13131 whole entry): as the sequence (Q13131 whole entry) above
T6 sequence (Q9Y478 whole entry): as the sequence (Q9Y478 whole entry) above
T6 sequence (P54619 whole entry): as the sequence (P54619 whole entry) above
T12 sequence (P54646 7-282): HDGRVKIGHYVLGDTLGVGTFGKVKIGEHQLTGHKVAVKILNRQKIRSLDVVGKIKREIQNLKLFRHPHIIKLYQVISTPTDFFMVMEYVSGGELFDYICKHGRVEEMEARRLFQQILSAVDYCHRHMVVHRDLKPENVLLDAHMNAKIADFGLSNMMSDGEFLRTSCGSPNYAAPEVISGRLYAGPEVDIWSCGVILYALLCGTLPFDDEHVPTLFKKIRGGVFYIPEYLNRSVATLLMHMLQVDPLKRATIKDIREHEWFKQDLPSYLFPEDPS
T11 sequence (Q13131 18-293): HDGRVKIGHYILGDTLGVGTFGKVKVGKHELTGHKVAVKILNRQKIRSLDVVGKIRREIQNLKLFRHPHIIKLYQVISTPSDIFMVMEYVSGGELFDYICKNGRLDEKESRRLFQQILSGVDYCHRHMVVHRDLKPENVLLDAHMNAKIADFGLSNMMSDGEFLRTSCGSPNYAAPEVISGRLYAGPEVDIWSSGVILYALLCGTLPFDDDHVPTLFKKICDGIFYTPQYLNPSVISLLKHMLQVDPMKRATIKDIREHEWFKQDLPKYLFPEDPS

Compound: Nc1ncnc2c1ncn2[C@@H]1O[C@H](COP(=O)(O)OP(=O)(O)OP(=O)(O)O)[C@@H](O)[C@H]1O [ATP]
Km [1]: 45.1 ± 5.8 µM | Km [2]: 31.4 ± 9.3 µM | Km [3]: 333 ± 65 µM | Km [4]: 48 ± 5 µM | Km [5]: 417 ± 39 µM | Km [6]: 26 ± 5.6 µM | Kd [7, 18]: 133 ± 4 µM | Kd [7, 19]: 95 ± 1 µM | Kd [7, 20]: 0.92 ± 0.03 µM | Kd [7, 21]: 2900 ± 200 µM | Kd [8, 18]: 300 ± 10 µM | Kd [8, 19]: 130 ± 1 µM | Kd [8, 20]: 1.35 ± 0.02 µM | Kd [8, 21]: 2260 ± 90 µM | Kd [9, 18]: 400 ± 20 µM | Kd [9, 19]: 95 ± 1 µM | Kd [9, 20]: 1.1 ± 0.04 µM | Kd [9, 21]: 3400 ± 300 µM | Kd [10, 18]: 540 ± 20 µM | Kd [10, 19]: 277 ± 4 µM | Kd [10, 20]: 7.6 ± 0.6 µM | Kd [10, 21]: 3500 ± 300 µM | Kd ([11]; read-out: equilibrium dissociation constant, stronger binding site): 18 µM | Kd ([11]; read-out: equilibrium dissociation constant, weaker binding site): 230 µM

EC50 [12]: 0.0032 µM | EC50 [13]: 0.04 µM | EC50 [14]: 0.441 µM | EC50 [15]: 0.057 µM | EC50 [16]: 0.0013 µM | EC50 [17]: 0.041 µM
Compound: PP2Aα: Human recombinant protein phosphatase 2Aα catalytic subunit expressed in insect cells
